Laboratory results from patent publication US8329755B2, “Methods for treating retroviral infections” (Roche Palo Alto LLC, priority 2004, dated 2012).

SMILES | melting point [°C]
NS(=O)(=O)c1ccc(NC(=O)Cc2ccc(Cl)c(C(=O)c3cc(Cl)ccc3Cl)c2)cc1 [Compound I-250, 2-[4-Chloro-3-(2,5-dichloro-benzoyl)-phenyl]-N-(4-sulfamoyl-phenyl)-acetamide] | 213.9 to 216.1
CCC(=O)N(C)S(=O)(=O)c1ccc(NC(=O)Cc2ccc(Cl)c(Oc3cc(Cl)cc(C#N)c3)c2F)c(Cl)c1 [Compound I-162, 2-[4-Chloro-3-(3-chloro-5-cyano-phenoxy)-2-fluoro-phenyl]-N-[2-chloro-4-(methyl-propionyl-sulfamoyl)-phenyl]-acetamide] | 198.2 to 200.6
Cc1cc(S(N)(=O)=O)ccc1NC(=O)Cc1ccc(Cl)c(Oc2cc(C#N)cc(C(F)(F)F)c2)c1F [Compound I-120, 2-[4-Chloro-3-(3-cyano-5-trifluoromethyl-phenoxy)-2-fluoro-phenyl]-N-(2-methyl-4-sulfamoyl-phenyl)-acetamide] | 212 to 216.1
N#Cc1cc(Oc2cc(CC(=O)Nc3ccc(S(N)(=O)=O)cc3Cl)ccc2Cl)cc(C(F)(F)F)c1 [Compound I-90, 2-[4-Chloro-3-(3-cyano-5-trifluoromethyl-phenoxy)-phenyl]-N-(2-chloro-4-sulfamoyl-phenyl)-acetamide] | 198 to 202
Cc1cc(S(N)(=O)=O)ccc1NC(=O)Cc1cc(C)c(C)c(Oc2cc(Cl)cc(C#N)c2)c1 [Compound I-183, 2-[3-(3-Chloro-5-cyano-phenoxy)-4,5-dimethyl-phenyl]-N-(2-methyl-4-sulfamoyl-phenyl)-acetamide] | 230.8 to 233.4
N#Cc1cc(C#N)cc(Oc2cc(CC(=O)Nc3ccc(S(N)(=O)=O)cc3)ccc2Cl)c1 [Compound I-2, 2-[4-Chloro-3-(3,5-dicyano-phenoxy)-phenyl]-N-(4-sulfamoyl-phenyl)-acetamide] | 218 to 219
Cc1cc(NS(C)(=O)=O)ccc1NC(=O)Cc1ccc(C)c(Oc2cc(Cl)cc(C#N)c2)c1 [Compound I-237, 2-[3-(3-Chloro-5-cyano-phenoxy)-4-methyl-phenyl]-N-(4-methanesulfonylamino-2-methyl-phenyl)-acetamide] | 180 to 181.4
Cc1ccc(C#N)cc1C(=O)c1cc(CC(=O)Nc2ccccc2Cl)ccc1C [Compound I-267, N-(2-Chloro-phenyl)-2-[3-(5-cyano-2-methyl-benzoyl)-4-methyl-phenyl]-acetamide] | 129.4 to 131.6
NS(=O)(=O)c1ccc(NC(=O)Cc2cc(Oc3cc(Cl)cc(Cl)c3)c3occc3c2)c(Cl)c1 [Compound I-149, N-(2-Chloro-4-sulfamoyl-phenyl)-2-[7-(3,5-dichloro-phenoxy)-benzofuran-5-yl]-acetamide] | 215.1 to 216.6
CC(C)c1ccc(CC(=O)Nc2ccc(S(N)(=O)=O)cc2)cc1Oc1cc(Cl)ccc1Br [Compound I-26, 2-[3-(2-Bromo-5-chloro-phenoxy)-4-isopropyl-phenyl]-N-(4-sulfamoyl-phenyl)-acetamide] | 204.1 to 206.7
Cc1cc(OCCCS(N)(=O)=O)ccc1NC(=O)Cc1ccc(Cl)c(Oc2cc(Cl)ccc2Br)c1 [Compound I-3, 2-[3-(2-Bromo-5-chloro-phenoxy)-4-chloro-phenyl]-N-[2-methyl-4-(3-sulfamoyl-propoxy)-phenyl]-acetamide] | 190.1 to 192.2
O=C(Cc1ccc(Cl)c(C(=O)c2cc(Cl)ccc2Cl)c1)Nc1ccccc1Cl [Compound I-248, 2-[4-Chloro-3-(2,5-dichloro-benzoyl)-phenyl]-N-(2-chloro-phenyl)-acetamide] | 121 to 123.5
COCC(=O)N(C)S(=O)(=O)c1ccc(NC(=O)Cc2ccc(Cl)c(Oc3cc(Cl)cc(C#N)c3)c2F)c(Cl)c1 [Compound I-171, 2-[4-Chloro-3-(3-chloro-5-cyano-phenoxy)-2-fluoro-phenyl]-N-{2-chloro-4-[(2-methoxy-acetyl)-methyl-sulfamoyl]-phenyl}-acetamide] | 183.2 to 185.5
N#Cc1cc(Oc2c(F)c(CC(=O)Nc3ccc(S(N)(=O)=O)cc3)cc(Br)c2Br)cc(C(F)F)c1 [Compound I-114, 2-[4,5-Dibromo-3-(3-cyano-5-difluoromethyl-phenoxy)-2-fluoro-phenyl]-N-(4-sulfamoyl-phenyl)-acetamide] | 144 to 147
Cc1cc(S(N)(=O)=O)ccc1NC(=O)Cc1ccc(Cl)c(Oc2cc(Br)cc(C#N)c2)c1F [Compound I-185, 2-[3-(3-Bromo-5-cyano-phenoxy)-4-chloro-2-fluoro-phenyl]-N-(2-methyl-4-sulfamoyl-phenyl)-acetamide] | 246 to 250.6
O=C(Cc1cc2c(c(C(=O)c3ccc(Cl)cc3)c1)OCC2)Nc1ccccc1Cl [Compound I-240, 2-[7-(4-Chloro-benzoyl)-2,3-dihydro-benzofuran-5-yl]-N-(2-chloro-phenyl)-acetamide] | 141.1 to 144.9
Cc1cc(S(N)(=O)=O)ccc1NC(=O)Cc1ccc(Cl)c(Oc2cc(C#N)cc(C#N)c2)c1F [Compound I-32, 2-[4-Chloro-3-(3,5-dicyano-phenoxy)-2-fluoro-phenyl]-N-(2-methyl-4-sulfamoyl-phenyl)-acetamide] | 248.4 to 250.8
Cc1cc(CC(=O)Nc2ccc(S(N)(=O)=O)cc2)cc(C(=O)c2cccc(Cl)c2)c1 [Compound I-261, 2-[3-(3-Chloro-benzoyl)-5-methyl-phenyl]-N-(4-sulfamoyl-phenyl)-acetamide] | 211 to 213.1
CCCCC(=O)NS(=O)(=O)c1ccc(NC(=O)Cc2ccc(Cl)c(Oc3cc(Cl)cc(C#N)c3)c2F)c(Cl)c1.[Na] | 157.6 to 159.2
COc1ccc(CC(=O)Nc2ccc(S(N)(=O)=O)cc2Cl)cc1Oc1cc(Cl)cc(C#N)c1 [Compound I-64, 2-[3-(3-Chloro-5-cyano-phenoxy)-4-methoxy-phenyl]-N-(2-chloro-4-sulfamoyl-phenyl)-acetamide] | 186.3 to 189.7
CCc1ccc(CC(=O)Nc2ccc(S(N)(=O)=O)cc2)cc1Oc1cc(C#N)cc(C#N)c1Cl [Compound I-52, 2-[3-(2-Chloro-3,5-dicyano-phenoxy)-4-ethyl-phenyl]-N-(4-sulfamoyl-phenyl)-acetamide] | 119.7 to 123.3
Cc1cc(CC(=O)Nc2ccc(S(N)(=O)=O)cc2C)cc(Oc2cc(C#N)ccc2Cl)c1 [Compound I-147, 2-[3-(2-Chloro-5-cyano-phenoxy)-5-methyl-phenyl]-N-(2-methyl-4-sulfamoyl-phenyl)-acetamide] | 200.3 to 201.1
Cc1ccc(CC(=O)Nc2ccnn2C)cc1Oc1cc(Cl)cc(C#N)c1 [Compound I-227, 2-[3-(3-Chloro-5-cyano-phenoxy)-4-methyl-phenyl]-N-(2-methyl-2H-pyrazol-3-yl)-acetamide] | 129.5 to 132.8
COc1ccc(CC(=O)Nc2ccccc2Cl)cc1Oc1cc(C#N)ccc1Cl [Compound I-62, 2-[3-(2-Chloro-5-cyano-phenoxy)-4-methoxy-phenyl]-N-(2-chloro-phenyl)-acetamide] | 194 to 197.8

Further lines, results first:

melting point [°C] | SMILES
154 to 155.5 | CCc1ccc(CC(=O)Nc2ccccc2Cl)cc1Oc1cc(Cl)ccc1Br [Compound I-16, 2-[3-(2-Bromo-5-chloro-phenoxy)-4-ethyl-phenyl]-N-(2-chloro-phenyl)-acetamide]
195.3 to 197.2 | CCN(CC)CC(=O)NS(=O)(=O)c1ccc(NC(=O)Cc2ccc(Cl)c(Oc3cc(Cl)cc(C#N)c3)c2F)c(Cl)c1.Cl
167.1 to 168.5 | O=C(Cc1ccc(Cl)c(C(=O)c2cc(Cl)ccc2Cl)c1)Nc1ccccc1 [Compound I-251, 2-[4-Chloro-3-(2,5-dichloro-benzoyl)-phenyl]-N-phenyl-acetamide]
234.4 to 234.9 | N#Cc1cc(Cl)cc(Oc2c(Cl)ccc(CC(=O)Nc3ccc(S(N)(=O)=O)cc3Cl)c2F)c1 [Compound I-100, 2-[4-Chloro-3-(3-chloro-5-cyano-phenoxy)-2-fluoro-phenyl]-N-(2-chloro-4-sulfamoyl-phenyl)-acetamide]
78.9 to 79.5 | Cc1cc(S(=O)(=O)CCCO)ccc1NC(=O)Cc1ccc(C)c(Oc2cc(Cl)cc(C#N)c2)c1 [Compound I-157, 2-[3-(3-Chloro-5-cyano-phenoxy)-4-methyl-phenyl]-N-[4-(3-hydroxy-propane-1-sulfonyl)-2-methyl-phenyl]-acetamide]
157.2 to 157.9 | CCCC(=O)NS(=O)(=O)c1ccc(NC(=O)Cc2ccc(Cl)c(Oc3cc(Cl)cc(C#N)c3)c2F)c(Cl)c1.[Na] [Compound I-138, N-(4-Butyrylsulfamoyl-2-chloro-phenyl)-2-[4-chloro-3-(3-chloro-5-cyano-phenoxy)-2-fluoro-phenyl]-acetamide; sodium salt]
199 to 201.9 | N#Cc1cc(C#N)cc(Oc2cc(CC(=O)Nc3ccccc3)ccc2Cl)c1 [Compound I-211, 2-[4-Chloro-3-(3,5-dicyano-phenoxy)-phenyl]-N-phenyl-acetamide]
169 to 180.3 | Cc1cc(S(=O)(=O)NC(=O)[C@@H](N)C(C)C)ccc1NC(=O)Cc1ccc(Cl)c(Oc2cc(Cl)cc(C#N)c2)c1F.Cl
126.8 to 127.7 | O=C(Cc1ccc(Cl)c(Oc2cccc(Cl)c2)c1)Nc1ccccc1 [Compound I-192, 2-[4-Chloro-3-(3-chloro-phenoxy)-phenyl]-N-phenyl-acetamide]
193.7 to 195.9 | CCc1ccc(CC(=O)Nc2ccc(S(N)(=O)=O)cc2)cc1Oc1cc(Cl)ccc1Br [Compound I-15, 2-[3-(2-Bromo-5-chloro-phenoxy)-4-ethyl-phenyl]-N-(4-sulfamoyl-phenyl)-acetamide]
110 to 111.5 | CCc1ccc(CC(=O)Nc2ccccc2Cl)cc1Oc1cc(C#N)cc(C#N)c1Cl [Compound I-60, 2-[3-(2-Chloro-3,5-dicyano-phenoxy)-4-ethyl-phenyl]-N-(2-chloro-phenyl)-acetamide]
232.9 to 236.9 | COc1ccc(CC(=O)Nc2ccc(S(N)(=O)=O)cc2C)cc1Oc1cc(C#N)ccc1Cl [Compound I-66, 2-[3-(2-Chloro-5-cyano-phenoxy)-4-methoxy-phenyl]-N-(2-methyl-4-sulfamoyl-phenyl)-acetamide]
